According to paper PMC11303761 (Nature Communications, 2024):

Key:
Type in all cases: cell-based
β2AR = β2AR (Homo sapiens, UniProt P07550); assay: β-arrestin2 recruitment; conditions: β2-Tango HTLA; agonist alone or with 100 µM PAGln (Fig 2A, 2C)
β1AR [1] = target: T1, β1AR (Homo sapiens, UniProt P08588); assay: β-arrestin2 recruitment; conditions: β1-HTLA cells
β1AR [2] = target: T1, β1AR; assay: cAMP production in β1-HEK293 cells; conditions: 100 µM

T1 sequence (P08588 whole entry): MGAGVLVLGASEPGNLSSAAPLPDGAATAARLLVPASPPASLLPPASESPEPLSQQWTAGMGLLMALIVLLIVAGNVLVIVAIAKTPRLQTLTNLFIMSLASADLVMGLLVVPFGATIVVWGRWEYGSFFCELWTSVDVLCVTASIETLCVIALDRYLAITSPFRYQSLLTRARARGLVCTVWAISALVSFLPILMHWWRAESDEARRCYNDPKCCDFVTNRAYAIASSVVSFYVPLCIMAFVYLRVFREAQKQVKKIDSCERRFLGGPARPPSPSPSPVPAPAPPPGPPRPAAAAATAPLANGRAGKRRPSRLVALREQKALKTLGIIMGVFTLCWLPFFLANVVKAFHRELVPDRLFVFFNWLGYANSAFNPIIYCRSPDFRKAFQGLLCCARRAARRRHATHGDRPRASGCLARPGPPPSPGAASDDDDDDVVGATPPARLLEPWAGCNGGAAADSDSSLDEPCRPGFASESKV
Sequence of β2AR (P07550 whole entry): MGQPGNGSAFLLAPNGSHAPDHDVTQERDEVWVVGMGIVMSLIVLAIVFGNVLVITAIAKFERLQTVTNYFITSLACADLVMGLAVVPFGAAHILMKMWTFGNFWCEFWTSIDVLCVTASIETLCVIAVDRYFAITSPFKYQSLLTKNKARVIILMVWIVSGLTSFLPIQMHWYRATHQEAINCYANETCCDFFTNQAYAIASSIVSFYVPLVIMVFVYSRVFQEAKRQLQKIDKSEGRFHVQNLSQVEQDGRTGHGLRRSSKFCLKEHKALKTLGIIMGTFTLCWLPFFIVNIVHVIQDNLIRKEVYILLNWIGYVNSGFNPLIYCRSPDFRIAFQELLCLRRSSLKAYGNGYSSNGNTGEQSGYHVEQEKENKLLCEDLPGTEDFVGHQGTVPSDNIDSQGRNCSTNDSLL

Structure (SMILES) | Bmax of β-arrestin2 recruitment (β2AR) [RLU] | effect of PAGln on ISO- or NE-induced β-arrestin2 recruitment (β1AR [1]) | cAMP production by compound alone (β1AR [2])
NC[C@H](O)c1ccc(O)c(O)c1 [NE, norepinephrine] | 3137 | – | –
NC(=O)CC[C@H](NC(=O)Cc1ccccc1)C(=O)O [PAGln, Phenylacetylglutamine] | – | failed to show any significant effect | failed to induce cAMP production
N[C@@H](Cc1ccccc1)C(=O)O [Phe, phenylalanine] | – | – | failed to induce cAMP production
